{"source": "patent US20040235856A1", "about": "“Treatment of incontinence” (Pfizer Inc, priority 2003, published 2004)", "key": {"anaesthetised guinea pig [1]": {"tested_on": "anaesthetised guinea pig", "assay": "Abdominal weight inducing micturition or leak and EUS EMG activity in anaesthetised guinea pig", "format": "in vivo", "details": "for % of Control Abdominal Weight Inducing Micturition or Leak: bladder at 75% of threshold volume", "excerpt": "(§1) In order to explore what subtypes of 5-HT receptors may be involved in enhancing the sacral spinal drive to the EUS, the effects of m-CPP (Sigma Aldrich Product number C-5554), MK-212 (Tocris Cat No 0941), YM-348 (WO 01/83487), Ro 60-0175 (Tocris Cat No 1854), WAY-161503 (Tocris Cat No 1801), and Example 1-N in WO 03/000663, which have been reported to be 5-HT2C receptor agonists, were investigated in an anaesthetised guinea pig model specifically designed to measure urethral continence mechanisms and leak point pressure using two paradigms. Firstly the activity of urethral striated musculature in response to increased abdominal pressure and so the pressure required to induce leak and secondly, the response of urethral striated musculature during normal bladder filling so as to maintain continence, as measured by changes in electromyographic activity of this continence maintaining sphincter.\n(§2) Experiments were performed in adult female guinea pigs, weighing 620-707 g. All animals were initially anaesthetised with halothane (4%), carried in oxygen (3-4L min^−1) and were maintained at an appropriate surgical plane with urethane (25% w/v; 0.5 ml 100 g^−1 body weight). The trachea, a jugular vein and a carotid artery were cannulated for respiratory ventilation, injection of test compound and monitoring of blood pressure, respectively. A midline laporatomy was performed to expose the urinary bladder and a cystometry tube was inserted through a small incision in the dome of the bladder and secured in place. The abdominal wound was closed tightly around the externalised cystometry tube, which, in turn, was connected to an infusion pump and pressure transducer, for filling the bladder and for recording intravesical pressure, respectively. Electromyographic (EMG) wire leads were inserted into the EUS striated muscle layer opposed to the dorsal surface of the symphysis pubis.\nFollowing a 30 min post surgery stabilisation period, the bladder was filled at a rate of 150 μl min^−1 with physiological saline (room temperature), until initiation of a micturition reflex or leak was observed. Following micturition or leak, the bladder was drained via the externalised cystometry tube. Bladder filling was repeated at least 3 times in order to establish a mean bladder threshold capacity for initiation of micturition or leak. Additionally, EUS EMG activity and intravesical pressures were recorded throughout bladder filling. Subsequently 1 of 2 protocols was carried out.\n1. Once a threshold bladder volume, which induced micturition or leak, was established, 75% of this volume was used for the next stage of the experiment. The bladder was filled (150 μl min^−1) to 75% of threshold volume with physiological saline and, through the use of a specially constructed frame, weights were positioned on the ventral surface of the abdomen of the animal just rostral to the position of the bladder. Starting at 50 g, then 60 g and then at increasing increments of 20 g, weights were placed on the animal's abdomen until micturition/leakage of fluid was observed. EUS EMG activity and intravesical pressure were recorded while weights were applied to the abdomen. The main parameters investigated were minimum abdominal weight required to induce micturition or leak at 75% of bladder threshold volume, and maximum EUS EMG activity at micturition or leak. Test drug or vehicle was injected intravenously immediately after the bladder was filled to 75% of threshold volume, and 60-120 sec before applying the first abdominal weight (50 g).\nAgonists were tested at doses between 0.1 and 3.0 mg kg^−1. In addition the effect of the reported 5-HT2C selective antagonist SB 242084 (Sigma, Cat-No: S-8061) (1 mg kg^−1) on agonist-induced effects was investigated in some animals."}, "anaesthetised guinea pig [2]": {"tested_on": "anaesthetised guinea pig", "assay": "EUS EMG activity during normal bladder filling in anaesthetised guinea pig", "format": "in vivo", "excerpt": "as §1\nas §2, with “Electromyographic (EMG) wire leads were inserted into the EUS striated muscle layer opposed to the dorsal surface of the symphysis pubis.” left out\nFollowing a 30 min post surgery stabilisation period, the bladder was filled at a rate of 150 μl min^−1 with physiological saline (room temperature), until initiation of a micturition reflex or leak was observed. […] Additionally, EUS EMG activity and intravesical pressures were recorded throughout bladder filling. […]"}, "mice": {"tested_on": "mice", "details": "subcutaneous administration; only significant at the highest dose tested; cited from earlier work"}, "[3]": {"tested_on": "ovariectomised, birth traumatised rats", "assay": "Leak point pressure in ovariectomised, birth traumatised female rats", "format": "in vivo, Sprague Dawley rats", "description": "In order to evaluate whether the effects of 5-HT2C agonists on urethral function was present in species other than the guinea pig, leak point pressure was measured in the absence and presence of MK-212 in a known model of urethral function in the rat (Lin A. S. et al. (1998) Urology 52:143-51; Sievert K. D. et al. (2001) J Urol. 166, 311-317; Resplande J et al (2002) J Urol. 168, 323-30), namely ovariectomised, birth traumatised rats.\nOvariectomy and simulated birth trauma were carried out on 8 female Sprague Dawley rats as described previously (Lin A. S. et al. (1998) Urology 52:143-51; Sievert K. D. et al. (2001) J Urol. 166, 311-317; Resplande J et al (2002) J Urol. 168, 323-30). Six weeks subsequent to recovery all animals underwent investigation of leak point pressure, initially rats were anaesthetised with halothane (4%), carried in oxygen (3-4L min^−1) and were maintained at an appropriate surgical plane with urethane (25% w/v; 0.5 ml 100 g^−1 body weight). The trachea, a jugular vein and a carotid artery were cannulated for respiratory ventilation, injection of test compound and monitoring of blood pressure, respectively. A midline laporatomy was performed to expose the urinary bladder and a cystometry tube was inserted through a small incision in the dome of the bladder and secured in place. The abdominal wound was closed tightly around the externalised cystometry tube, which, in turn, was connected to an infusion pump and pressure transducer, for filling the bladder and for recording intravesical pressure, respectively. Baseline leak point pressures (LPP) were established by slow elevation of a saline containing bag connected to the bladder and pressure transducer via the cystometry tube. LPP was defined as the bladder pressure at the point where fluid was first noted at the urethral meatus. Between 4 and 7 baseline readings were made before iv bolus administration of MK-212 (0.1 mg kg^−1). Following a 2 min delay to allow for distribution LPP measurements were repeated in an identical manner to that described above, between 3 and 8 measures were taken."}, "[4]": {"details": "0.3 mg kg^-1, filling 150 μl min^-1, FIG. 1b"}, "[5]": {"details": "0.1 mg/kg iv bolus, individual animals 1-8"}}, "note": "“And” between values parts separate entries of the source, which are not always exact repeats. Equal values may be shown once.", "data": [{"smiles": "Clc1cccc(N2CCNCC2)c1", "note": "[m-CPP, m-chlorophenylpiperazine]", "values": [{"measurement": "% of Control EUS EMG Activity", "setting": "anaesthetised guinea pig [1]; 0.3 mg kg^-1 iv.", "result": "110 ± 43 % of Control"}, {"measurement": "% of Control Abdominal Weight Inducing Micturition or Leak", "setting": "anaesthetised guinea pig [1]; 0.3 mg kg^-1 iv.", "result": "128 ± 6 % of Control"}, {"measurement": "% of Control EUS EMG Activity", "setting": "anaesthetised guinea pig [1]; 1.0 mg kg^-1 iv.", "result": "135 ± 10 % of Control"}, {"measurement": "% of Control Abdominal Weight Inducing Micturition or Leak", "setting": "anaesthetised guinea pig [1]; 1.0 mg kg^-1 iv.", "result": "139 ± 12 % of Control"}, {"measurement": "increase in EUS EMG activity compared with controls", "setting": "anaesthetised guinea pig [1]; 3.0 mg kg^-1", "result": 56, "unit": "%"}, {"measurement": "increase of the weight required to induce micturition or leak compared with controls", "setting": "anaesthetised guinea pig [1]; 3.0 mg kg^-1", "result": 66, "unit": "%"}, {"measurement": "% of Control EUS EMG Activity", "setting": "anaesthetised guinea pig [1]; 3.0 mg kg^-1 iv.", "result": "156 ± 18 % of Control"}, {"measurement": "% of Control Abdominal Weight Inducing Micturition or Leak", "setting": "anaesthetised guinea pig [1]; 3.0 mg kg^-1 iv.", "result": "166 ± 9 % of Control"}]}, {"smiles": "Cc1cc2c(cc1Cl)N(C(=O)Nc1ccc(Oc3cccnc3C)nc1)CC2", "note": "[SB 242084]", "values": [{"measurement": "effect of antagonist on agonist-induced effects", "setting": "anaesthetised guinea pig [2]; 1 mg kg^-1, in those animals tested", "result": "abolished the effects of applied 5HT2c agonists"}]}, {"smiles": "O=C1Nc2cc(Cl)c(Cl)cc2N2CCNCC12", "note": "(stereo not shown) [Way 161503]", "values": [{"measurement": "EUS EMG activity during normal bladder filling", "setting": "anaesthetised guinea pig [2]; [4]", "result": "potentiated"}, {"measurement": "bladder volume at which EUS EMG activity increases", "setting": "anaesthetised guinea pig [2]; [4]", "result": "increases in activity occurred at lower bladder volumes than in drug free conditions"}]}, {"smiles": "FC(F)(F)c1ccc(N2CCNCC2)nc1Cl", "note": "[Org-12962, 1-[6-chloro-5-(trifluoromethyl)-2-pyridinyl]piperazine]", "values": [{"measurement": "urine wet spot size", "setting": "mice", "result": "reduce urine wet spot size"}]}, {"smiles": "Clc1cncc(N2CCNCC2)n1", "note": "[MK-212]", "values": [{"measurement": "animals in which LPP pressure increased", "setting": "[3]; 0.1 mg kg^-1", "result": "7 of 8"}, {"measurement": "mean increase in LPP (mean ± standard deviation)", "setting": "[3]; 0.1 mg kg^-1, N=7", "result": "7.1±2.6", "unit": "mmHg"}, {"measurement": "Increase in LPP over baseline", "setting": "[3]; [5]", "result": "10.2 mmHg and 5.5 mmHg and 7.0 mmHg and 0.4 mmHg and 3.6 mmHg and 6.0 mmHg and 10.9 mmHg and 6.7 mmHg"}, {"measurement": "LPP (mean ± SD) after MK-212", "setting": "[3]; [5]", "result": "30.6 (3.8) mmHg and 23.4 (3.4) mmHg and 21.8 (1.7) mmHg and 18.2 (1.5) mmHg and 27.6 (1.5) mmHg and 30.7 (1.2) mmHg and 33.5 (1.6) mmHg and 23.0 (2.6) mmHg"}]}]}
